Source: patent publication US20230124142A1, “NEW THERAPEUTIC TARGETS WITH AN ANTI-INFLAMMATORY AND ANTI-INTERFERON EFFECT” (UNIVERSITÉ PARIS CITÉ, priority 2020, published 2023)

What was measured:
[1] = system: neurones infected by the prions; format: cell-based
[2] = system: monocytes of healthy donors; assay: Intracellular TNFα production in monocytes after TLR7/8 (Resiquimod-R848) stimulation, flow cytometry; format: cell-based, human; details: inhibitor 1 h before R848 (TLR7/8), 16 h, flow cytometry (FIG. 1, 2)
Procedure: (§1) The cells were rinsed in PBS then incubated with a viability dye (Zombie Aqua, Biolegend) for 30 min at ambient temperature. After washing, the cells were resuspended in PBS containing 2% SVF and 2 mM EDTA then labelled with the APC Vio770 anti-CD14 (clone REA599) antibody from Miltenyi Biotec, used at 1/100°. […] Data acquisition was carried out on the Canto 11 flow cytometer using the Diva software (BD Biosciences, San Jose, Calif.). The Kaluza software was used to analyze the data.

[3] = system: NF-κB transcription factor; assay: NF-κB transcription factor activity, supernatants of R848-stimulated PBMCs on THP1-Dual reporter line; format: cell-based; details: human PBMCs, inhibitor 1 h before R848, 24 h, QUANTI-Blue (FIG. 17B)
Procedure: The monocytes, T lymphocytes and B lymphocytes were cultured at 1·10^6/ml. […] The T lymphocytes were stimulated for 3 days with beads from the “Dynabeads human T activator CD3/CD28” kit from Thermo Fisher Scientific, following their instructions. […] The B lymphocytes were stimulated for 24 h with CpG-A t 1 μg/ml. […] The activity of the NF-κB transcription factor was measured by means of the THP1-Dual reporter cell line from Invivogen. […] The activity of the NF-κB transcription factor was measured with QUANTI-Blue, a detection agent […], following the supplier's recommendations.

[4] = system: THP1-Dual human monocyte cell line; assay: Cell toxicity on THP1-Dual, ATP quantification with CellTiter Glo; format: cell-based; details: cGAMP 24 h
B lymphocytes = assay: CD69 expression and viability of B lymphocytes activated with CpG-A (TLR9 ligand), flow cytometry; format: cell-based, human; details: purified B lymphocytes, 24 h (FIG. 20)
Procedure: (§2) The monocytes, T lymphocytes and B lymphocytes were cultured at 1·10^6/ml. […] The T lymphocytes were stimulated for 3 days with beads from the “Dynabeads human T activator CD3/CD28” kit from Thermo Fisher Scientific, following their instructions. […] The B lymphocytes were stimulated for 24 h with CpG-A t 1 μg/ml. […] The cells were rinsed in PBS then incubated with a viability dye (Zombie Aqua, Biolegend) for 30 min at ambient temperature. After washing, the cells were resuspended in PBS containing 2% SVF and 2 mM EDTA. For the monocytes, an intracellular labelling of TNFα, IL-6 and IL-1β, with the “Inside Stain” kit (Miltenyi Biotec) was used following the manufacturer's protocol. […] Data acquisition was carried out on the Attune N×T flow cytometer from Thermo Fisher. The FlowJo software was used to analyze the data. For the T lymphocytes, the cells were suspended in PBS containing 2% SVF and 2 mM EDTA then labelled with the PE anti-CD69 and APC anti-CD3 antibody from Miltenyi Biotec, used at 1/100°. After incubation for 30 min, the cells were rinsed in PBS containing 2% SVF and 2 mM EDTA. Data acquisition was carried out on the Attune N×T flow cytometer from Thermo Fisher. The FlowJo software was used to analyze the data. […]

human PBMCs = assay: Interferons in supernatants of R848-stimulated PBMCs, STING-37 reporter cell line; format: cell-based; design: dose or concentration left out as unconfirmed; details: inhibitor 1 h before R848, 24 h, STING-37 reporter (FIG. 17A)
[5] = system: immune cells (PBMCs and purified monocytes) of healthy donors; assay: Production of inflammatory cytokines by PBMCs and purified monocytes after TLR2/4 stimulation by bacterial agents; format: cell-based, human; details: TLR 2/4 stimulation by lipoteichoic acid/LPS
[6] = system: PBMCs of patients suffering from juvenile idiopathic arthritis; assay: Transcription of TNFα and IL-6 genes in PBMCs of juvenile idiopathic arthritis patients, RT-qPCR; format: cell-based, human; details: inhibitor at 1 μM for 16 h, RT-qPCR (FIG. 21)
[7] = system: monocytes of healthy donors; assay: Intracellular IL1β and TNFα in monocytes after inflammasome activation by uric acid crystals (MSU, gout model), flow cytometry; format: cell-based, human; details: activation of the inflammasome by uric acid crystals (mimicking gout)
Procedure: as §1, with “II” for “11”

[8] = system: HEK293 non-immune cell line; assay: Interferon production by cGAMP-activated HEK293 non-immune cells (STING-37), luciferase; details: inhibitor at 1 and 5 μM (FIG. 22C)
[9] = system: monocytes of healthy donors; assay: TNFα, IL-1β and IL-6 production and viability of R848-activated purified monocytes, flow cytometry; format: cell-based, human
Procedure: as §2

[10] = system: peripheral blood mononuclear cells (PBMCs); assay: Cell toxicity on PBMCs, ATP quantification with CellTiter Glo; format: cell-based, human; details: cGAMP 24 h
activated immune cells = assay: Secretion of inflammatory cytokines and interferons by activated immune cells placed in contact with ROCK inhibitor; format: cell-based; details: compared with activated immune cells not placed in contact with the inhibitor
T lymphocytes = assay: CD69 expression and viability of T lymphocytes activated with CD3/CD28 beads, flow cytometry; format: cell-based, human; details: purified T lymphocytes, 3 days (FIG. 19)
Procedure: as §2

[11] = system: peripheral blood mononuclear cells (PBMCs) of healthy donors; assay: Secretion of inflammatory cytokines and interferons by PBMCs after TLR7/8 (R848) stimulation, LegendPlex; details: human PBMCs incubated with inhibitor before R848 stimulation
[12] = system: THP1-Dual human monocyte cell line; assay: Interferon response of cGAMP-activated THP1-Dual cells, luciferase; details: inhibitor 1 h before cGAMP 3 μg/ml, 24 h, luciferase (FIG. 22B, 23B)
[13] = system: peripheral blood mononuclear cells (PBMCs); assay: Interferon production by cGAMP-activated PBMCs, STING-37 reporter cell line; details: inhibitor 1 h before cGAMP 3 μg/ml, 24 h, STING-37 reporter (FIG. 22A, 23A)

Compound: C[C@@H](N)[C@H]1CC[C@H](C(=O)Nc2ccncc2)CC1 [Y27632]
- level of TNFα in the culture medium [1]: re-establishes a “normal” level
- intracellular production of inflammatory cytokines (TNFα) [2]: inhibits, according to a dosage effect
- activation of the transcription factor of the NF-κB pathway induced by the stimulation of TLR7/8 [3]: inhibits
- viability of the THP1-Dual [4]: without affecting the viability
- viability of the B lymphocytes (B lymphocytes; CpG-A): without affecting the viability
- expression of the CD69 marker at the surface of the B lymphocytes (B lymphocytes; inhibitor at 1 μM, 1 h before CpG-A 1 μg/ml): inhibits, according to a dosage effect
- production of IFN induced by the stimulation of TLR7/8 (human PBMCs): inhibits
- production of inflammatory cytokines [5]: capable of inhibiting the production of inflammatory cytokines
- transcription of the genes encoding TNFα and IL-6 [6]: inhibits the transcription
- production of inflammatory cytokines [7]: capable of inhibiting the production of inflammatory cytokines
- production of interferon induced by the STING ligand [8]: blocks in a limited manner
- production of TNFα, IL-1β and IL-6 induced by R848 ([9]; inhibitor 1 h before R848 1 μg/ml, 6 h, flow cytometry (FIG. 18)): inhibits, according to a dosage effect
- viability of the monocytes ([9]; inhibitor 1 h before R848, 6 h (FIG. 18)): without affecting the viability
- viability of the PBMCs [10]: without affecting the viability
- secretion of the inflammatory cytokines (TNFα, IL-1β, IL6, MCP1 (CCL2)) and of the interferons (IFN) (activated immune cells): inhibits the secretion
- viability of the T lymphocytes (T lymphocytes; CD3/CD28 beads): without affecting the viability
- expression of the CD69 marker at the surface of the T lymphocytes (T lymphocytes; inhibitor at 1 and 5 μM, 1 h before CD3/CD28 beads): inhibits, according to a dosage effect
- production of TNFα and of pro-inflammatory cytokines such as IL-6, IL-1β and the interferons induced by the TLR7/8 stimulation [11]: inhibits the production
- production of interferons (IFN) induced by the cGAMP [12]: blocks the production of interferons (IFN) induced by the cGAMP according to a dosage effect starting from 1 μM
- production of interferons (IFN) induced by the cGAMP [13]: blocks the production of interferons (IFN) induced by the cGAMP according to a dosage effect starting from 1 μM
